Measurements taken from PubChem BioAssay (NCI).
Values joined by “and” are separate entries in the source; they are usually repeats but may differ in a detail not shown here. Identical values can stand only once.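 Cells were grown in 96-well plates and exposed to each compound for 48 hours at five concentrations; endpoints were interpolated linearly between bracketing concentrations, or set to the highest concentration if not reached. GI50 = concentration required for 50% inhibition of growth. TGI is the concentration that stops growth completely.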

Assays:
Test in all cases: inhibition of tumour cell growth, NCI panel, 48 h
UACC-62 melanoma = test system: UACC-62 melanoma
HCT-15 colon = test system: HCT-15 colon
DMS 273 small cell lung = test system: DMS 273 small cell lung
HCC-2998 colon = test system: HCC-2998 colon
KM20L2 colon = test system: KM20L2 colon
UACC-257 melanoma = test system: UACC-257 melanoma
UO-31 renal = test system: UO-31 renal
MOLT-4 leukemia = test system: MOLT-4 leukemia
RXF 393 renal = test system: RXF 393 renal
KM12 colon = test system: KM12 colon
DU-145 prostate = test system: DU-145 prostate

Compound: COC(=O)C12CC(C3CC31)C1CC12 (configuration not stated)
- TGI (UACC-62 melanoma): > 100 µM
- TGI (HCT-15 colon): > 100 µM
- TGI (DMS 273 small cell lung): > 100 µM
- TGI (HCC-2998 colon): > 100 µM
- TGI (KM20L2 colon): > 100 µM
- TGI (UACC-257 melanoma): > 100 µM
- TGI (UO-31 renal): > 100 µM
- TGI (MOLT-4 leukemia): > 100 µM

Compound: CCOC(=O)CCC1(C(=O)OC)CCCC1=O (configuration not stated)
- TGI (DMS 273 small cell lung): > 100 µM
- TGI (RXF 393 renal): > 100 µM
- TGI (KM12 colon): > 100 µM
- TGI (HCC-2998 colon): > 100 µM
- TGI (KM20L2 colon): > 100 µM
- TGI (UACC-257 melanoma): > 100 µM
- TGI (UO-31 renal): > 100 µM
- TGI (MOLT-4 leukemia): > 100 µM

Compound: c1ccc2c(c1)CCCc1cc3ccccc3nc1-2
- TGI (UACC-62 melanoma): > 100 µM
- TGI (HCT-15 colon): > 100 µM
- TGI (KM12 colon): > 100 µM
- TGI (HCC-2998 colon): > 100 µM
- TGI (KM20L2 colon): > 100 µM
- TGI (UACC-257 melanoma): > 100 µM
- TGI (UO-31 renal): > 100 µM
- TGI (MOLT-4 leukemia): > 100 µM

Compound: c1ccc(C2=NN3CN(N2)c2ccccc2OCCCOc2ccccc23)cc1
- TGI (UACC-62 melanoma): > 100 µM
- TGI (HCT-15 colon): > 100 µM
- TGI (DMS 273 small cell lung): > 100 µM
- TGI (RXF 393 renal): > 100 µM
- TGI (KM12 colon): > 100 µM
- TGI (KM20L2 colon): > 100 µM
- TGI (UO-31 renal): > 100 µM
- TGI (MOLT-4 leukemia): > 100 µM

Compound: CC1=NN(C(=O)CC(=O)Nc2cccc(Cl)c2)C(=O)C1N=Nc1ccc(S(N)(=O)=O)cc1 (configuration not stated)
- TGI (UACC-62 melanoma): > 100 µM
- TGI (HCT-15 colon): > 100 µM
- TGI (DMS 273 small cell lung): > 100 µM
- TGI (RXF 393 renal): > 100 µM
- TGI (KM12 colon): > 100 µM
- TGI (HCC-2998 colon): > 100 µM
- TGI (KM20L2 colon): > 100 µM
- TGI (UACC-257 melanoma): > 100 µM
- TGI (UO-31 renal): > 100 µM
- TGI (MOLT-4 leukemia): > 100 µM

Compound: CCCCN(CCCC)C(=NCc1ccccc1)NC#N
- TGI (UACC-62 melanoma): 33.6 µM
- TGI (HCT-15 colon): 28.2 µM
- TGI (DMS 273 small cell lung): 75.7 µM
- TGI (RXF 393 renal): 39.8 µM
- TGI (KM12 colon): 83.6 µM
- TGI (HCC-2998 colon): 49.7 µM
- TGI (KM20L2 colon): 52.2 µM
- TGI (UACC-257 melanoma): 67.5 µM
- TGI (UO-31 renal): 25.3 µM

Compound: C/C(=N\N(C)C)C(CN(C)C)C(c1ccccc1)c1c(O)c2ccccc2oc1=O (configuration not stated)
- TGI (UACC-62 melanoma): > 100 µM
- TGI (HCT-15 colon): > 100 µM
- TGI (DMS 273 small cell lung): > 100 µM
- TGI (RXF 393 renal): > 100 µM
- TGI (KM12 colon): > 100 µM
- TGI (HCC-2998 colon): > 100 µM
- TGI (KM20L2 colon): > 100 µM
- TGI (UACC-257 melanoma): > 100 µM
- TGI (MOLT-4 leukemia): > 100 µM

Compound: O=S1(=O)NNC(=NCc2ccc(F)cc2)c2ccccc21
- TGI (UACC-62 melanoma): > 100 µM
- TGI (HCT-15 colon): > 100 µM
- TGI (DMS 273 small cell lung): > 100 µM
- TGI (DU-145 prostate): > 100 µM
- TGI (RXF 393 renal): > 69.3 µM
- TGI (KM12 colon): > 100 µM
- TGI (HCC-2998 colon): > 100 µM
- TGI (KM20L2 colon): > 100 µM
- TGI (UACC-257 melanoma): > 100 µM
- TGI (UO-31 renal): > 100 µM
- TGI (MOLT-4 leukemia): > 70.8 µM

Compound: O=c1[nH]c(=O)n(C2CC(O)C(CO)O2)cc1C#Cc1ccc(C(F)(F)F)cc1 (configuration not stated)
- TGI (UACC-62 melanoma): > 100 µM
- TGI (HCT-15 colon): > 100 µM
- TGI (DMS 273 small cell lung): > 100 µM
- TGI (RXF 393 renal): > 100 µM
- TGI (KM12 colon): > 100 µM
- TGI (HCC-2998 colon): > 100 µM
- TGI (KM20L2 colon): > 100 µM
- TGI (UACC-257 melanoma): > 100 µM
- TGI (UO-31 renal): > 100 µM
- TGI (MOLT-4 leukemia): > 100 µM

Compound: Cc1ccc(S(=O)(=O)C(C#N)c2nc3ccccc3nc2-n2cccn2)cc1 (configuration not stated)
- TGI (HCT-15 colon): > 100 µM
- TGI (DMS 273 small cell lung): > 100 µM
- TGI (KM12 colon): > 100 µM
- TGI (HCC-2998 colon): > 100 µM
- TGI (UACC-257 melanoma): > 100 µM
- TGI (UO-31 renal): > 100 µM
- TGI (MOLT-4 leukemia): > 100 µM

Compound: Oc1ccc2ccccc2c1-c1nnc(CCCCCCCCc2nnc(-c3c(O)ccc4ccccc34)o2)o1
- GI50 (UACC-62 melanoma): 2.54 µM
- TGI (UACC-62 melanoma): 25 µM and > 100 µM
- GI50 (HCT-15 colon): 0.563 µM
- TGI (HCT-15 colon): 25 µM and > 100 µM
- GI50 (DU-145 prostate): 2.38 µM
- TGI (DU-145 prostate): 9.59 µM and > 24.2 µM
- GI50 (RXF 393 renal): 1.39 µM
- TGI (RXF 393 renal): 7.93 µM and 31.8 µM
- GI50 (KM12 colon): 3.96 µM
- TGI (KM12 colon): 25 µM and > 100 µM
- GI50 (HCC-2998 colon): 5.04 µM
- TGI (HCC-2998 colon): 11.9 µM and > 62.1 µM
- GI50 (UACC-257 melanoma): 2.26 µM
- TGI (UACC-257 melanoma): 25 µM and > 100 µM
- GI50 (UO-31 renal): 0.93 µM
- TGI (UO-31 renal): 19.2 µM and 15.4 µM
- GI50 (MOLT-4 leukemia): 0.0812 µM

Compound: CC1(C)OC[C@@H](/C=C\CCO[Si](c2ccccc2)(c2ccccc2)C(C)(C)C)N1C(=O)c1ccccc1
- TGI (UACC-62 melanoma): 33.1 µM
- TGI (HCT-15 colon): > 100 µM
- TGI (DU-145 prostate): 95.9 µM
- TGI (RXF 393 renal): 27.9 µM
- TGI (KM12 colon): 34.6 µM
- TGI (HCC-2998 colon): 21.4 µM
- TGI (UACC-257 melanoma): 24.1 µM
- TGI (UO-31 renal): 36.5 µM
- TGI (MOLT-4 leukemia): 47.1 µM

Compound: CCCCCCCCCCCCCCCCP(=O)(O)OP(=O)(O)OCC1OC(n2ccc(N)nc2=O)C(O)C1O (configuration not stated)
- GI50 (UACC-62 melanoma): 44.5 µM and 9.63 µM
- TGI (UACC-62 melanoma): > 100 µM
- GI50 (HCT-15 colon): 97.5 µM and 19.3 µM
- TGI (HCT-15 colon): > 100 µM
- TGI (DU-145 prostate): > 100 µM
- GI50 (RXF 393 renal): 62.6 µM and 19.8 µM
- TGI (RXF 393 renal): > 100 µM and 41.1 µM
- TGI (KM12 colon): > 100 µM
- GI50 (HCC-2998 colon): 99.7 µM and 17 µM
- TGI (HCC-2998 colon): > 100 µM and 91.2 µM
- GI50 (UACC-257 melanoma): > 100 µM and 41.8 µM
- TGI (UACC-257 melanoma): > 100 µM
- TGI (UO-31 renal): > 100 µM and 28 µM
- TGI (MOLT-4 leukemia): > 100 µM and 22.7 µM

Compound: CC(=O)N[C@@H](Cc1ccc(O)cn1)C(=O)NCc1ccc2c(c1)OCO2
- TGI (UACC-62 melanoma): > 100 µM
- TGI (HCT-15 colon): > 100 µM
- TGI (DU-145 prostate): > 100 µM
- TGI (RXF 393 renal): > 100 µM
- TGI (KM12 colon): > 100 µM
- TGI (HCC-2998 colon): > 100 µM
- TGI (UACC-257 melanoma): > 100 µM
- TGI (UO-31 renal): > 100 µM
- TGI (MOLT-4 leukemia): > 100 µM

Compound: Brc1ccc2c(c1)C1(c3cc(Br)ccc3-2)c2cc(Br)ccc2-c2ccc(Br)cc21
- TGI (UACC-62 melanoma): > 100 µM
- TGI (HCT-15 colon): > 100 µM
- TGI (DMS 273 small cell lung): > 100 µM
- TGI (RXF 393 renal): > 100 µM
- TGI (KM12 colon): > 100 µM
- TGI (HCC-2998 colon): > 100 µM
- TGI (KM20L2 colon): > 100 µM
- TGI (UACC-257 melanoma): > 100 µM
- TGI (UO-31 renal): > 100 µM
- TGI (MOLT-4 leukemia): > 100 µM

Compound: NC1=NS(=O)(=O)N=C(N)C1=Cc1ccc([N+](=O)[O-])o1
- TGI (UACC-62 melanoma): 30.2 µM
- TGI (HCT-15 colon): 30.7 µM
- TGI (DMS 273 small cell lung): 30.3 µM
- TGI (RXF 393 renal): 32.8 µM
- TGI (KM12 colon): 34.5 µM
- TGI (HCC-2998 colon): 45.8 µM
- TGI (KM20L2 colon): 31.3 µM
- TGI (UACC-257 melanoma): 28.9 µM
- TGI (UO-31 renal): 31.8 µM
- TGI (MOLT-4 leukemia): 40.7 µM
